Tests used:
Eimeria tenella = assay: In vitro efficacy against Eimeria tenella in infected MDBK cell culture (schizonts/merozoites counted microscopically); assay type: cell-based; parameters: Activity in inhibiting development of Eimeria tenella in vitro (schizonts and merozoites) / Presence of schizonts/merozoites (microscopic observation, picture): dose or concentration left out as unconfirmed; details: for Inhibition of development of Eimeria tenella in cell culture (formation of merozoites): five different concentrations in the presence of the parasite (FIG. 30); for Activity in inhibiting development of Eimeria tenella in vitro (schizonts and merozoites) / Presence of schizonts/merozoites (microscopic observation, picture): second series; for Activity in inhibiting development of Eimeria tenella in vitro (schizonts and merozoites): one concentration of 3.125 (FIG. 30A); for Activity towards the parasite Eimeria tenella (summary): summary of in vitro testing of fifteen polyether ionophores; for Inhibition of the parasite Eimeria tenella / Development of Eimeria tenella in vitro: third series; for Inhibition of the parasite Eimeria tenella: at low concentrations (FIG. 31B); for Presence of schizonts/merozoites (microscopic observation, picture): 3.125, FIG. 30B/30C; for Development of Eimeria tenella in vitro: at very low concentrations (<0.39 μg/μL) (FIG. 31B)
Experimental: Once the IC50 concentration was determined, the test was performed on infected cells. The working concentration chosen was always lower than IC50.
After having cultured cells at 40° C. in each well of a 96-well plate, they were treated with a specific concentration (<IC50, allowing the inhibition of parasites in over 50% of cells) of polyether ionophore. Then, the sporozoites of Eimeria tenella were excysted and the cells infected with purified sporozoites. After incubation for 24 hrs at 40° C., the medium was changed. The efficiency of molecules was evaluated microscopically after 40 hrs and 48 hrs. The release of merozoites was noted (FIG. 30B). Thus, in explicit cases, the merozoites released were counted; in ambiguous cases, the quantitative PCR ([…]) will be used. For each test, a positive control of treatment (with monensin 1a) and a positive control of infection was made.

MDBK cells = assay: Cytotoxicity testing / IC50 determination on MDBK cells (Cell Titer, tetrazolium to formazan, 96-well); assay type: cell-based, Bovine; details: summary statement
Source text: Cytotoxicity testing. For the prevention and the treatment, a compound is considered effective when it is non toxic or its toxicity is low for host cells but high for the target (parasite). For cytotoxicity testing and determination of the IC50, the in vitro model is one of the best methods, enabling this type of testing to be carried out directly on cells alone without fear of fatal consequences as in vivo. The IC50 is the maximum concentration at which at least 50% of cells survive following a treatment. All concentrations above it are excluded for the test; values below it, on the other hand, can be tested in order to determine the concentration that will totally or partially eliminate the parasite or inhibit its development. This test consists in testing several concentrations on cell culture in 96-well plate; the concentrations are tested in duplicate, and the cytotoxicity of the molecules is evaluated with special kits based on an oxidation-reduction reaction at the cell-machinery level (mitochondria).
As in the MTT kit (Promega), the reagent used is the tetrazolium salt MTT (3-[4,5-dimethylthiazol-2-yl]-2,5-diphenyltetrazolium bromide). The tetrazolium ring that it contains is reduced to formazan by the mitochondrial succinate dehydrogenase of active living cells. The color of the medium thus changes from yellow to purplish-blue. The intensity of this color is proportional to the number of living cells present at the time of testing but also to their metabolic activity. The percentage of living cells is determined from the ratio between the absorbance for the test well and the absorbance for the control well (cells alone).
Initially, the inhibitory concentration IC50 was determined. It corresponded to the concentration of polyether ionophore allowing the viability of 50% of cells. Bovine cells were cultured and incubated for 24 hrs at 40° C. in the wells of a 96-well plate. Then, a fixed concentration ([…]) of polyether ionophore was added to each well. The cells were incubated at 40° C. for 24 hrs. 20 μL, of “Cell Titer” was added to each well. The cells were again incubated for 30 min to 1 hour at 40° C. before the plate was read in a plate reader at a wavelength of 490 nm (maximum absorption of the formazan). This reading determined the optical density (OD) of each well and allowed access to the percentage of inhibition. I50=(ODtreated/ODcontrol)×100 […]=[1−(ODtreated/ODcontrol)]×100.
FIG. 26 represents a 96-well plate after adding “Cell Titer”. The intensity of colours depends on the toxicity of the polyether ionophore tested. Increasing color intensity corresponded to increasing number of living cells. […]

CCC1(C2OC(C3OC(O)(CO)C(C)CC3C)CC2C)CCC(C2(C)CCC3(CC(O)C(C)C(C(C)C(OC)C(C)C(=O)NCc4ccc(C(=O)OC)cc4)O3)O2)O1 (stereo not drawn) [Compound 3b, 1-(4-methylbenzoate)methylene Amidomonensine]
Inhibition of development of Eimeria tenella in cell culture (formation of merozoites) (Eimeria tenella; first series): did not appear to significantly inhibit

CCC1(C2OC(C3OC(=O)C(C)CC3C)CC2C)CCC(C2(C)CCC3(CC(=O)C(C)C(C(C)C(OC)C(C)C(=O)O)O3)O2)O1 (stereo not drawn) [Compound 19, oxo-lactone Monensin]
Activity in inhibiting development of Eimeria tenella in vitro (schizonts and merozoites) (Eimeria tenella): significant efficacy
Activity towards the parasite Eimeria tenella (summary) (Eimeria tenella): satisfactory and encouraging results
Cytotoxicity (summary in words) (MDBK cells): very low cytotoxicities

CCC1(C2OC(C(O)C(C)CC(C)C(=O)O)CC2C)CCC(C2(C)CCC3(CC(=O)C(C)C(C(C)C(OC)C(C)C(=O)O)O3)O2)O1 (stereo not drawn) [Compound 31, 7-oxo, 21-hydroxy, 25-acid Monensin]
Concentration at which significantly effective against the parasite (Eimeria tenella; third series (FIG. 31B)): greater than 1.56 g/μL
Inhibition of the parasite Eimeria tenella (Eimeria tenella): did not inhibit

CCC12CCC(O1)C1(C)CCC3(CC(O)C(C)C(O3)C(C)C(OC)C(C)C(=O)OCC3(O)OC(C(C)CC3C)C3CC(C)C2O3)O1 (stereo not drawn) [Compound 7, Monensin Lactone]
Concentration at which formation of merozoites was inhibited (Eimeria tenella; first series, at high concentrations (FIG. 30)): greater than or equal to 12.5 g/μL

CCC1(C2OC(C3OC(O)(CO)C(C)CC3C)CC2C)CCC(C2(C)CCC3(CC(O)C(C)C(C(C)C(OC)C(C)C(=O)NCc4ccc(C(=O)O)cc4)O3)O2)O1 (stereo not drawn) [Compound 6a, 1-(benzoic acid)methylene Amidomonensine]
Inhibition of development of Eimeria tenella in cell culture (formation of merozoites) (Eimeria tenella; first series): did not appear to significantly inhibit

CCC1(C2OC(C3OC(CO)(OC)C(C)CC3C)CC2C)CCC(C2(C)CCC3(CC(O)C(C)C(C(C)C(OC)C(C)C(=O)O)O3)O2)O1 (stereo not drawn) [Compound 8a, 25-Methoxymonensin]
Presence of schizonts/merozoites (microscopic observation, picture) (Eimeria tenella): absence of schizonts and merozoites
Presence of schizonts/merozoites (microscopic observation, picture) (Eimeria tenella; listed as EV 02058): merozoites not present
Activity in inhibiting development of Eimeria tenella in vitro (schizonts and merozoites) (Eimeria tenella): very high efficacy
Activity towards the parasite Eimeria tenella (summary) (Eimeria tenella): significant activity
Cytotoxicity (summary in words) (MDBK cells): very low cytotoxicities

CCC1(C2OC(C3OC(O)(CO)C(C)CC3C)CC2C)CCC(C2(C)CCC3(CC(O)C(C)C(C(C)C(OC)C(C)C(=O)NCc4ccccc4)O3)O2)O1 (stereo not drawn) [Compound 3a, 1-benzylamidomonensine]
Inhibition of development of Eimeria tenella in cell culture (formation of merozoites) (Eimeria tenella; first series): did not appear to significantly inhibit

CCC12CCC(O1)C1(C)CCC3(CC(=O)C(C)C(O3)C(C)C(OC)C(C)C(=O)OCC(=O)C(C)CC(C)C(=O)C3CC(C)C2O3)O1 (stereo not drawn) [Compound 18, Triacetone Lactone]
Inhibition of the parasite Eimeria tenella (Eimeria tenella): did not inhibit

CCC1(C2OC(C3OC(O)(CO)C(C)CC3C)CC2C)CCC(C2(C)CCC3(CC(O)C(C)C(C(C)C(OC)C(C)C(=O)NCc4cccc(C(=O)OC)c4)O3)O2)O1 (stereo not drawn) [Compound 3c, 1-(3-methylbenzoate)methylene Amidomonensin]
Activity in inhibiting development of Eimeria tenella in vitro (schizonts and merozoites) (Eimeria tenella): no significant activity

CCC1(C2OC(C3OC4(COC(=O)CO4)C(C)CC3C)CC2C)CCC(C2(C)CCC3(CC(O)C(C)C(C(C)C(OC)C(C)C(=O)O)O3)O2)O1 (stereo not drawn) [Compound 12, Oxo-dioxane Monensin]
Activity towards the parasite Eimeria tenella (summary) (Eimeria tenella): significant activity
Development of Eimeria tenella in vitro (Eimeria tenella): completely inhibited
Cytotoxicity (summary in words) (MDBK cells): very low cytotoxicities

CCC1(C2OC(C3OC4(COC(=O)CO4)C(C)CC3C)CC2C)CCC(C2(C)CCC3(CC(=O)C(C)C(C(C)C(OC)C(C)C(=O)O)O3)O2)O1 (stereo not drawn) [Compound 26, 7-oxo-monensin Oxodioxane]
Inhibition of the parasite Eimeria tenella (Eimeria tenella): did not inhibit

CC[C@@]1([C@@H]2O[C@@H]([C@H]3O[C@@](O)(CO)[C@H](C)C[C@@H]3C)C[C@@H]2C)CC[C@H]([C@]2(C)CC[C@]3(C[C@H](O)[C@@H](C)[C@@H]([C@@H](C)[C@@H](OC)[C@H](C)C(=O)O)O3)O2)O1 [Compound 1a, Monensin]
Inhibition of development of Eimeria tenella in cell culture (formation of merozoites) (Eimeria tenella; first series): inhibited the formation of merozoites at very low concentrations

CCC12CCC(O1)C1(C)CCC3(CC(OC)C(C)C(O3)C(C)C(OC)C(C)C(=O)OCC3(OC)OC(C(C)CC3C)C3CC(C)C2O3)O1 (stereo not drawn) [Compound 14a, 7,25-dimethoxylactone]
Presence of schizonts/merozoites (microscopic observation, picture) (Eimeria tenella): merozoites present
Activity in inhibiting development of Eimeria tenella in vitro (schizonts and merozoites) (Eimeria tenella): no significant activity

CCC1(C2OC(C3OC(CO)(OCC(=O)O)C(C)CC3C)CC2C)CCC(C2(C)CCC3(CC(O)C(C)C(C(C)C(OC)C(C)C(=O)O)O3)O2)O1 (stereo not drawn) [Compound 27, O-25-glycolic Acid Monensin]
Activity towards the parasite Eimeria tenella (summary) (Eimeria tenella): significant activity
Development of Eimeria tenella in vitro (Eimeria tenella): completely inhibited
Cytotoxicity (summary in words) (MDBK cells): very low cytotoxicities

CCC1(C2OC(C3OC(O)(CO)C(C)CC3C)CC2C)CCC(C2(C)CCC3(CC(O)C(C)C(C(C)C(OC)C(C)C(=O)NC(C(=O)OC)c4ccc(F)cc4)O3)O2)O1 (stereo not drawn) [Compound 4c, Methyl 2′-(monensinamido)-2′-(4′-fluorophenyl)acetate]
Activity in inhibiting development of Eimeria tenella in vitro (schizonts and merozoites) (Eimeria tenella): no significant activity

From US8822528B2, “Monensin derivatives for the treatment and prevention of protozoal infections” (Merial Limited, priority 2010, dated 2014)
